These results are taken from patent US7659279B2, “Quinazoline derivatives and their use in the treatment of cancer” (AstraZeneca AB, priority 2003, dated 2010).

For one experiment, the target named is T1, EGFR tyrosine kinase (Homo sapiens, UniProt P00533).
T1 construct: Recombinant intracellular fragments of EGFR, erbB2 and erbB4; made in house; host or cells: baculovirus/Sf21 insect cells (cleared lysate used)
Kind of experiment: Test (a) protein tyrosine kinase phosphorylation assay, EGFR. As to conditions: recombinant intracellular fragment; ATP at Km concentration; read-out: IC50 (nM) Test (a): Inhibition of EGFR tyrosine kinase protein phosphorylation. The class given is biochemical. The method, then:
(§1) a) Protein Tyrosine Kinase Phosphorylation Assays
This test measures the ability of a test compound to inhibit the phosphorylation of a tyrosine containing polypeptide substrate by EGFR tyrosine kinase enzyme.
(§2) Recombinant intracellular fragments of EGFR, erbB2 and erbB4 (accession numbers X00588, X03363 and L07868 respectively) were cloned and expressed in the baculovirus/Sf21 system. Lysates were prepared from these cells by treatment with ice-cold lysis buffer (20 mM N-2-hydroxyethylpiperizine-N′-2-ethanesulfonic acid (HEPES) pH7.5, 150 mM NaCl, 10% glycerol, 1% Triton X-100, 1.5 mM MgCl2, 1 mM ethylene glycol-bis(β-aminoethyl ether) N′,N′,N′,N′-tetraacetic acid (EGTA), plus protease inhibitors and then cleared by centrifugation.
(§3) Constitutive kinase activity of the recombinant protein was determined by its ability to phosphorylate a synthetic peptide (made up of a random co-polymer of Glutamic Acid, Alanine and Tyrosine in the ratio of 6:3:1). Specifically, Maxisorb™ 96-well immunoplates were coated with synthetic peptide ([…] of peptide in a 100 μl phosphate buffered saline (PBS) solution and incubated at 4° C. overnight). Plates were washed in PBS-T (phosphate buffered saline with 0.5% Tween 20) then in 50 mM HEPES pH 7.4 at room temperature to remove any excess unbound synthetic peptide. EGFR, ErbB2 or ErbB4 tyrosine kinase activity was assessed by incubation in peptide coated plates for 20 minutes at 22° C. in 100 mM HEPES pH 7.4, adenosine trisphosphate (ATP) at Km concentration for the respective enzyme, 10 mM MnCl2, 0.1 mM Na3VO4, 0.2 mM DL-dithiothreitol (DTT), 0.1% Triton X-100 with test compound in DMSO (final concentration of 2.5%). Reactions were terminated by the removal of the liquid components of the assay followed by washing of the plates with PBS-T.
(§4) The immobilised phospho-peptide product of the reaction was detected by immunological methods. Firstly, plates were incubated for 90 minutes at room temperature with anti-phosphotyrosine primary antibodies that were raised in the mouse (4G10 from Upstate Biotechnology). Following extensive washing, plates were treated with Horseradish Peroxidase ([…]) conjugated sheep anti-mouse secondary antibody (NXA931 from Amersham) for 60 minutes at room temperature. After further washing, HRP activity in each well of the plate was measured […] using 22′-Azino-di-[3-ethylbenzthiazoline sulfonate (6)] diammonium salt crystals (ABTS™ from Roche) as a substrate.
(§5) Quantification of colour development and thus enzyme activity was achieved by the measurement of absorbance at 405 nm on a Molecular Devices ThermoMax microplate reader. Kinase inhibition for a given compound was expressed as an IC50 value. This was determined by calculation of the concentration of compound that was required to give 50% inhibition of phosphorylation in this assay. The range of phosphorylation was calculated from the positive (vehicle plus ATP) and negative (vehicle minus ATP) control values.

The target in another experiment is T2, erbB2 tyrosine kinase (Homo sapiens, UniProt P04626).
T2 construct: Recombinant intracellular fragments of EGFR, erbB2 and erbB4; made in house; host or cells: baculovirus/Sf21 insect cells (cleared lysate used)
T2 sequence (P04626 676-1255 limits assumed): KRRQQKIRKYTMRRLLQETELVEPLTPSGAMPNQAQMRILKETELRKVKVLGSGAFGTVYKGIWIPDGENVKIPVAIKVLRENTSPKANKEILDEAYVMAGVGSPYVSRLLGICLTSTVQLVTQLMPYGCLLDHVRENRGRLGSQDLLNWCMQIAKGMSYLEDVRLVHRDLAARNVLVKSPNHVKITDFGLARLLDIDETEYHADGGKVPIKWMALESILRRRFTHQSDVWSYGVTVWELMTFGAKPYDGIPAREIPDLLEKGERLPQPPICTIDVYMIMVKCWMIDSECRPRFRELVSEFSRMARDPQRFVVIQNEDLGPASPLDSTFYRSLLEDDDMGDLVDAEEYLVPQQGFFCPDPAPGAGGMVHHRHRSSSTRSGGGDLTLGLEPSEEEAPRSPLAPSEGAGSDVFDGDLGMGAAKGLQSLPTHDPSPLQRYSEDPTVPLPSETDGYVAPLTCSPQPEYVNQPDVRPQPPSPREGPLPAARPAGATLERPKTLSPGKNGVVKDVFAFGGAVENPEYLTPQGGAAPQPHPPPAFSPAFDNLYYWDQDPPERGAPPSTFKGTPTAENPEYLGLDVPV
Kind of experiment: Test (a) protein tyrosine kinase phosphorylation assay, erbB2. The class given is biochemical. As to conditions: recombinant intracellular fragment; ATP at Km concentration; read-out: IC50 (nM) Test (a): Inhibition of erbB2 tyrosine kinase protein phosphorylation. The method, then:
as §1, §2, §3, §4, §5

Experiment [1] relates to KB cells (human naso-pharangeal carcinoma). Put plainly: Test (b) KB cell proliferation assay. The class given is cell-based. Particulars: 96 h, EGF 1 ng/ml, 4 days, MTT, read-out: IC50 (nM) Test (b): EGFR driven KB cell proliferation assay. The procedure: b) KB Cell Proliferation Assay
This assay measures the ability of a test compound to inhibit the EGF driven proliferation of KB cells (human naso-pharangeal carcinoma obtained from the American Type Culture Collection (ATCC)).
KB cells were cultured in Dulbecco's modified Eagle's medium (DMEM) containing 10% foetal calf serum, 2 mM glutamine and non-essential amino acids at 37° C. in a 7.5% CO2 air incubator. Cells were harvested from the stock flasks using Trypsin/ethylaminediaminetetraacetic acid (EDTA). Cell density was measured using a haemocytometer and viability was calculated using trypan blue solution before being seeded at a density of 1.25×10^3 cells per well of a 96 well plate in DMEM containing 2.5% charcoal stripped serum, 2 mM glutamine and non-essential amino acids at 37° C. in 7.5% CO2 and allowed to settle for 4 hours.
Following adhesion to the plate, the cells are treated with or without EGF (final concentration of 1 ng/ml) and with or without compound at a range of concentrations in dimethylsulfoxide (DMSO) (1% final) in a final volume of 200 μl before incubation for 4 days at 37° C. in 7.5% CO2. Following the incubation period, cell numbers were determined by addition of 50 μl of 3-(4,5-Dimethylthiazol-2-yl)-2,5-diphenyltetrazolium bromide (MTT) (stock 5 mg/ml) and incubated at 37° C. in a 7.5% CO2 air incubator for 2 hours. MTT solution was then removed from the cells by aspiration, which were then allowed to air dry and were dissolved upon the addition of 100 μl of DMSO.
Absorbance of this solubilised cells was read at 540 nm to quantify cell biomass. Inhibition of proliferation was expressed as an IC50 value. This was determined by calculation of the concentration of compound that was required to give 50% inhibition of proliferation. The range of proliferation was calculated from the positive (vehicle plus EGF) and negative (vehicle minus EGF) control values.

T1 sequence (P00533 669-1210 limits assumed): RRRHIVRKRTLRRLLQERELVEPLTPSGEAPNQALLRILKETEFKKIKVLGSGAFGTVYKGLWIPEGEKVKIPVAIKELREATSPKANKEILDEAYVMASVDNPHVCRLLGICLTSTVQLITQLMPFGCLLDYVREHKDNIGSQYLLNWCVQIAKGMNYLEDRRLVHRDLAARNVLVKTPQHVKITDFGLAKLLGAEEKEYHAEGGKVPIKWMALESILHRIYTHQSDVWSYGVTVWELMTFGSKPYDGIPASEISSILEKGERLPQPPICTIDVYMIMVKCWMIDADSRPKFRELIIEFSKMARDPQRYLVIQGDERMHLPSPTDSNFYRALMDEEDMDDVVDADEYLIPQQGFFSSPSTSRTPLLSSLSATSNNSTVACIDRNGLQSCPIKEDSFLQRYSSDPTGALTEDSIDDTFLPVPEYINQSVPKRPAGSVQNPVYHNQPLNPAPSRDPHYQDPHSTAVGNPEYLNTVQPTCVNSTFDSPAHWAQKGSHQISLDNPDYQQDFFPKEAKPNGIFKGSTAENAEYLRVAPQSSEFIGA

Regarding `COc1cc(OC[C@@H]2CCCN2C(=O)CN(C)C)c2c(Nc3ccc(F)c(Cl)c3)ncnc2c1` [Example 2, N-(3-Chloro-4-fluorophenyl)-5-({(2S)-1-[(dimethylamino)acetyl]pyrrolidin-2-yl}methoxy)-7-methoxyquinazolin-4-amine], the IC50 on EGFR tyrosine kinase amounted to 70 nM; at erbB2 tyrosine kinase it was 1850 nM; in experiment [1], 141 nM.

Take `COc1cc(OC[C@H]2CCCN2C(=O)CO)c2c(Nc3ccc(F)c(Cl)c3)ncnc2c1` [Example 3, 2-{(2R)-2-[({4-[3-Chloro-4-fluoroanilino]-7-methoxyquinazolin-5-yl}oxy)methyl]pyrrolidin-1-yl}-2-oxoethanol]: the results for the IC50 (on EGFR tyrosine kinase; on erbB2 tyrosine kinase; in experiment [1]) were 9 nM, 275 nM and 91 nM, respectively.

As for `COc1cc(OC[C@H]2CCCN2C(=O)CN(C)C)c2c(Nc3ccc(F)c(Cl)c3)ncnc2c1` [Example 4], the results for the IC50 (on EGFR tyrosine kinase; on erbB2 tyrosine kinase; in experiment [1]) were 39 nM, 252 nM and 138 nM, respectively.

Regarding `COc1cc(OC[C@@H]2CCCN2C(=O)CN2CCCC2)c2c(Nc3ccc(F)c(Cl)c3)ncnc2c1` [Example 6, N-(3-Chloro-4-fluorophenyl)-7-methoxy-5-{[(2S)-1-(pyrrolidin-1-ylacetyl)pyrrolidin-2-yl]methoxy}quinazolin-4-amine], the IC50 is 57 nM on EGFR tyrosine kinase, 1630 nM on erbB2 tyrosine kinase and 130 nM in experiment [1].

For the compound `COc1cc(OC[C@H]2CCCN2C(C)=O)c2c(Nc3ccc(F)c(Cl)c3)ncnc2c1` [Example 13, 5-{[(2R)-1-Acetylpyrrolidin-2-yl]methoxy}-N-(3-chloro-4-fluorophenyl)-7-methoxyquinazolin-4-amine], the results for the IC50 (on EGFR tyrosine kinase; at erbB2 tyrosine kinase; in experiment [1]) were 1 nM, 358 nM and 28 nM, respectively.

With `O=C(CO)N1CCC[C@@H]1COc1cc(OCCO)cc2ncnc(Nc3ccc(F)c(Cl)c3)c12` [Example 16, 2-[(2R)-2-({[4-[3-Chloro-4-fluoroanilino]-7-(2-hydroxyethoxy)quinazolin-5-yl]oxy}methyl)pyrrolidin-1-yl]-2-oxoethanol], the values for the IC50 (on EGFR tyrosine kinase; on erbB2 tyrosine kinase; in experiment [1]) were 1 nM, 52 nM and 128 nM, respectively.

As for `CCOCCOc1cc(OC[C@H]2CCCN2C(=O)CO)c2c(Nc3ccc(F)c(Cl)c3)ncnc2c1` [Example 18, 2-[(2R)-2-({[4-[3-Chloro-4-fluoroanilino]-7-(2-ethoxyethoxy)quinazolin-5-yl]oxy}methyl)pyrrolidin-1-yl]-2-oxoethanol], the results for the IC50 (at EGFR tyrosine kinase; at erbB2 tyrosine kinase; in experiment [1]) were 8 nM, 85 nM and 99 nM, respectively.

`COc1cc(OC[C@H]2C[C@H](O)CN2C(C)=O)c2c(Nc3ccc(F)c(Cl)c3)ncnc2c1` [Example 22, (3S,5R)-1-Acetyl-5-[({4-[3-chloro-4-fluoroanilino]-7-methoxyquinazolin-5-yl}oxy)methyl]pyrrolidin-3-ol]: the IC50 at EGFR tyrosine kinase was 1 nM; on erbB2 tyrosine kinase, 61 nM; in experiment [1], 75 nM.

Consider `COCC(=O)N1C[C@@H](O)C[C@@H]1COc1cc(OC)cc2ncnc(Nc3ccc(F)c(Cl)c3)c12` [Example 23, (3S,5R)-5-[({4-[3-Chloro-4-fluoroanilino]-7-methoxyquinazolin-5-yl}oxy)methyl]-1-(methoxyacetyl)pyrrolidin-3-ol], for which the IC50 on EGFR tyrosine kinase is 56 nM; at erbB2 tyrosine kinase, 1730 nM; in experiment [1], 288 nM.

On to `COc1cc(OC[C@@H]2C[C@@H](O)CN2C(=O)CO)c2c(Nc3ccc(F)c(Cl)c3)ncnc2c1` [Example 25, (3R,5S)-5-[({4-[3-Chloro-4-fluoroanilino]-7-methoxyquinazolin-5-yl}oxy)methyl]1-glycoloylpyrrolidin-3-ol], for which the IC50 at EGFR tyrosine kinase stood at 32 nM; on erbB2 tyrosine kinase, 1910 nM; in experiment [1], 156 nM.

As to `COc1cc(OC[C@@H]2C[C@H](O)CN2C(=O)CN(C)C)c2c(Nc3ccc(F)c(Cl)c3)ncnc2c1` [Example 31, (3S,5S)-5-[({4-[3-Chloro-4-fluoroanilino]-7-methoxyquinazolin-5-yl}oxy)methyl]-1-(N,N-dimethylglycyl)pyrrolidin-3-ol], the IC50 at EGFR tyrosine kinase was found to be 42 nM; at erbB2 tyrosine kinase, 532 nM; in experiment [1] it was 112 nM.

For the compound `COc1cc(OC[C@H]2C[C@@H](O)CN2C(=O)CO)c2c(Nc3ccc(F)c(Cl)c3)ncnc2c1` [Example 32, (3R,5R)-5-[({4-[3-Chloro-4-fluoroanilino]-7-methoxyquinazolin-5-yl}oxy)methyl]-1-glycoloylpyrrolidin-3-ol], the IC50 was determined as 18 nM on EGFR tyrosine kinase, 215 nM at erbB2 tyrosine kinase and 118 nM in experiment [1].
